We go through two compounds from patent publication US12077503B2, “Substituted cyclic amides and their use as herbicides” (FMC CORPORATION, priority 2015, dated 2024).

Structures are written as SMILES.

What all share (assay type): in vivo
The subject of test [1] is giant foxtail (Setaria faberii). Put plainly: Test A preemergence. The settings on record: Setaria faberi, pre-emergence, 240 h; for pest or weed control at 125 g/ha: 125 g ai/ha, preemergence, 0 to 100 scale where 0 is no effect and 100 is complete control, read-out: Foxtail, Giant plant response rating; for pest or weed control at 500 g/ha: 500 g ai/ha, Preemergence, visual injury vs untreated controls after approximately 10 d, read-out: Foxtail, Giant plant response rating (0 to 100 scale where 0 is no effect and 100 is complete control). Put shortly: (§1)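 Preemergence directed soil spray on seeded pots, or postemergence application to plants 2–10 cm, one- to two-leaf. Solvent mixture non-phytotoxic, with surfactant. Scored ~10 d later, visually, 0–100 vs untreated.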

The test system of test [2] is Galium (catchweed bedstraw, Galium aparine). Put plainly: Test A postemergence. To be noted: Galium, post-emergence, 240 h, 125 g ai/ha, postemergence, visual injury rating after approximately 10 d; read-out: Galium plant response rating (0 to 100 scale, 0 no effect, 100 complete control). Put shortly: as §1
A further test concerns Kochia (Kochia scoparia). Put plainly: Test A postemergence. To be noted: Bassia scoparia, post-emergence, 240 h, 125 g ai/ha, postemergence, visual injury rating after approximately 10 d; read-out: Kochia plant response rating (0 to 100 scale, 0 no effect, 100 complete control). In a few lines: as §1
For test [3], the system named is barnyardgrass (Echinochloa crus-galli). Put plainly: Test A postemergence. To be noted: Echinochloa crus-galli, post-emergence, 240 h, 125 g ai/ha, postemergence, visual injury rating after approximately 10 d; read-out: Barnyardgrass plant response rating (0 to 100 scale, 0 no effect, 100 complete control). In a few lines:
as §1

Test [4] relates to blackgrass (Alopecurus myosuroides). Put plainly: Test A postemergence. The settings on record: Alopecurus myosuroides, post-emergence, 240 h, 125 g ai/ha, postemergence, visual injury rating after approximately 10 d; read-out: Blackgrass plant response rating (0 to 100 scale, 0 no effect, 100 complete control). In a few lines:
as §1

The subject of a further test is corn (Zea mays). Put plainly: Test A postemergence. To be noted: Zea mays, post-emergence, 240 h, 125 g ai/ha, postemergence, visual injury rating after approximately 10 d; read-out: Corn plant response rating (0 to 100 scale, 0 no effect, 100 complete control). In a few lines: as §1
The test system of test [5] is giant foxtail (Setaria faberii). Put plainly: Test A postemergence. To be noted: Setaria faberi, post-emergence, 240 h, 125 g ai/ha, postemergence, visual injury rating after approximately 10 d; read-out: Foxtail, Giant plant response rating (0 to 100 scale, 0 no effect, 100 complete control). Put shortly:
as §1

Test [6] concerns pigweed (Amaranthus retroflexus). Put plainly: Test A postemergence. To be noted: Amaranthus retroflexus, post-emergence, 240 h, 125 g ai/ha, postemergence, visual injury rating after approximately 10 d; read-out: Pigweed plant response rating (0 to 100 scale, 0 no effect, 100 complete control). In a few lines: as §1
For test [7], the system named is ragweed (common ragweed, Ambrosia elatior). Put plainly: Test A postemergence. To be noted: Ambrosia artemisiifolia, post-emergence, 240 h, 125 g ai/ha, postemergence, visual injury rating after approximately 10 d; read-out: Ragweed plant response rating (0 to 100 scale, 0 no effect, 100 complete control). Put shortly: as §1
Test [8] relates to ryegrass, Italian (Italian ryegrass, Lolium multiflorum). Put plainly: Test A postemergence. The settings on record: Lolium multiflorum, post-emergence, 240 h, 125 g ai/ha, postemergence, visual injury rating after approximately 10 d; read-out: Ryegrass, Italian plant response rating (0 to 100 scale, 0 no effect, 100 complete control). Put shortly: as §1
The subject of test [9] is wheat (Triticum aestivum). Put plainly: Test A postemergence. The settings on record: Triticum aestivum, post-emergence, 240 h, 125 g ai/ha, postemergence, visual injury rating after approximately 10 d; read-out: Wheat plant response rating (0 to 100 scale, 0 no effect, 100 complete control). Put shortly: as §1
Test [10] concerns barnyardgrass (Echinochloa crus-galli). Put plainly: Test B flooded paddy test. To be noted: Echinochloa crus-galli, Flood, 250 g ai/ha; scale of 0 to 100 where 0 is no effect and 100 is complete control; read-out: Barnyardgrass plant response rating. In a few lines:
(§2)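 Flooding to 3 cm over soil accompanied treatment, which consisted of adding compound to the standing water around 2-leaf plants; depth was then maintained. Visual assessment versus controls followed at 13 to 15 d (scale 0–100, 0 meaning no effect).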

Test [11] has as its system ducksalad (Heteranthera limosa). Put plainly: Test B flooded paddy test. To be noted: Heteranthera limosa, Flood, 250 g ai/ha; scale of 0 to 100 where 0 is no effect and 100 is complete control; read-out: Ducksalad plant response rating. Put shortly: as §2
The next test relates to rice (Oryra sativa). Put plainly: Test B flooded paddy test. The settings on record: Oryza sativa, Flood, 250 g ai/ha; scale of 0 to 100 where 0 is no effect and 100 is complete control; read-out: Rice plant response rating. Put shortly: as §2
Test [12] relates to sedge, umbrella (small-flower umbrella sedge, Cyperus difformis). Put plainly: Test B flooded paddy test. The settings on record: Cyperus difformis, Flood, 250 g ai/ha; scale of 0 to 100 where 0 is no effect and 100 is complete control; read-out: Sedge, Umbrella plant response rating. Put shortly:
as §2

Regarding `CN1C[C@H](c2cccc(C3CC3)c2)[C@@H](C(=O)Nc2ccc(F)cc2F)C1=O` [Compound 818], the pest or weed control at 125 g/ha in test [1] worked out at 90%; in [2], 50%; with Kochia (Kochia scoparia) it was 40%; in [3], 90%; in [4], 30%; in test [5], 90%. Besides, the pest or weed control at 125 g/ha in test [6] worked out at 20%; in test [7], 0%; in test [8], 40%. Besides, the pest or weed control at 500 g/ha in [1] came out at 100%. For the same compound, the plant injury at 125 g/ha with corn (Zea mays) was 40%; in test [9] it was 0%. The pest or weed control at 250 g/ha in test [10] stood at 55%; in test [11], 80%; with rice (Oryra sativa) it was 0%; in [12], 0%.

As to `CC(C)c1cccc([C@H]2CN(C)C(=O)[C@@H]2C(=O)Nc2ccccc2F)c1` [Compound 819], the pest or weed control at 125 g/ha was found to be 100% in [1]; 50% in test [2]; 30% in the test with Kochia (Kochia scoparia); 100% in test [3]; 60% in [4]; 90% in test [5]. The pest or weed control at 125 g/ha turned out to be 30% in test [6], 0% in [7] and 70% in [8]. For the same compound, the pest or weed control at 500 g/ha in [1] worked out at 100%. The plant injury at 125 g/ha in the test with corn (Zea mays) came to 40%; in test [9], 30%. The pest or weed control at 250 g/ha came out at 65% in [10], 100% in [11], 0% in the test with rice (Oryra sativa) and 0% in test [12].
